# Measurements from patent publication US20040014215A1, “Synchronised arabidopsis cell suspensions and uses thereof” (priority 2000, published 2004).
# How the values were obtained:
# [1] = system: histone H4; assay: Northern expression analysis after aphidicolin synchronisation of MM1 (maximum signal = 100%); format: cell-based, Arabidopsis thaliana
# Method: (§1) was analysed following the expression level of known cell cycle regulated genes. Synchronisation was performed as described in Example 2A, with the exception that two 7-day old cultures of the weekly sub-cultured cell suspension (210 ml each) were combined. 40 ml of combined culture was transferred into 200 ml of fresh MSS-medium in each of 10 separate flasks. After incubation for 24 hrs under conditions as described in Example 1, in the presence of 4.16 μg/ml aphidicolin, cells from 5 pooled flasks were washed through a nylon net (mesh size 47 μm) and washed with 2 litre MSS medium and shaken vigorously to remove the aphidicolin. Cells were transferred into a 50 ml plastic tube, washed again with MSS medium and centrifuged at 2500 rpm for 1 min (1075 rcf). Cells were resuspended and combined with the cells from the other 5 flasks similarly washed in a total volume of 300 ml fresh MSS-medium. 30 ml of this cell suspension was then added to 200 ml fresh MSS-medium in each of 10 separate flasks.
# (§2) 1) 25 ml for Northern blot (transferred into 50 ml plastic tube, centrifuged at 2500 rpm for 1 min, the supernatant discarded, and the cell pellet shock-frozen in liquid nitrogen before storing in −80° C. freezer)
# (§3) Samples were collected at the time point indicated (time of removal of aphidicolin equals time point 0 hrs) and were analysed for expression of the following genes by Northern blot:
# histone H4 (ID/Accession no. ATH4 GB/M17133)
# (§4) For each probe the maximum hybridisation signal obtained was defined as 100%.
# [2] = system: CDK-b2; assay: as above; format: cell-based, Arabidopsis thaliana
# Method: as §1, §2, §3, §4
# [3] = system: CycB1; assay: as above; format: cell-based, Arabidopsis thaliana
# Method: as §1, §2, §3, §4
# [4] = system: CycD3; assay: as above; format: cell-based, Arabidopsis thaliana
# Method: as §1, §2, §3, §4
# [5] = system: alfalfa-cell suspension; details: blocked with aphidicolin for 36 h and released; cited from earlier work
# [6] = 0 hrs after aphidicolin removal
# [7] = 2 hrs after aphidicolin removal
# [8] = 4 hrs after aphidicolin removal
# [9] = 6 hrs after aphidicolin removal
# [10] = 8 hrs after aphidicolin removal
# [11] = 10 hrs after aphidicolin removal
# [12] = 12 hrs after aphidicolin removal
# [13] = 14 hrs after aphidicolin removal
# [14] = 16 hrs after aphidicolin removal
# [15] = 18 hrs after aphidicolin removal
# [16] = 20 hrs after aphidicolin removal
# [17] = 22 hrs after aphidicolin removal
# [18] = 24 hrs after aphidicolin removal
# [19] = 26 hrs after aphidicolin removal
# [20] = 28 hrs after aphidicolin removal
# [21] = 30 hrs after aphidicolin removal
compound,measurement,setting,value
C[C@@]1(CO)[C@H](O)CC[C@@]2(C)[C@H]1CC[C@H]1C[C@@H]3C[C@@]12CC[C@]3(O)CO [aphidicolin],histone H4 %,[1]; [6],33.81%
same,histone H4 Band intensity,[1]; [6],1029
same,histone H4 %,[1]; [7],100.0%
same,histone H4 Band intensity,[1]; [7],3046
same,histone H4 %,[1]; [8],84.73%
same,histone H4 Band intensity,[1]; [8],2580
same,histone H4 %,[1]; [9],58.91%
same,histone H4 Band intensity,[1]; [9],1794
same,histone H4 %,[1]; [10],32.42%
same,histone H4 Band intensity,[1]; [10],987
same,histone H4 %,[1]; [11],38.70%
same,histone H4 Band intensity,[1]; [11],1178
same,histone H4 %,[1]; [12],28.53%
same,histone H4 Band intensity,[1]; [12],868
same,histone H4 %,[1]; [13],22.81%
same,histone H4 Band intensity,[1]; [13],694
same,histone H4 %,[1]; [14],12.75%
same,histone H4 Band intensity,[1]; [14],388
same,histone H4 %,[1]; [15],11.26%
same,histone H4 Band intensity,[1]; [15],343
same,histone H4 %,[1]; [16],19.43%
same,histone H4 Band intensity,[1]; [16],591
same,histone H4 %,[1]; [17],17.55%
same,histone H4 Band intensity,[1]; [17],534
same,histone H4 %,[1]; [18],17.77%
same,histone H4 Band intensity,[1]; [18],541
same,histone H4 %,[1]; [19],23.04%
same,histone H4 Band intensity,[1]; [19],701
same,histone H4 %,[1]; [20],14.35%
same,histone H4 Band intensity,[1]; [20],437
same,CDK-b2 %,[2]; [6],7.78%
same,CDK-b2 Band intensity,[2]; [6],1084
same,CDK-b2 %,[2]; [7],12.90%
same,CDK-b2 Band intensity,[2]; [7],1796
same,CDK-b2 %,[2]; [8],8.22%
same,CDK-b2 Band intensity,[2]; [8],1144
same,CDK-b2 %,[2]; [9],12.09%
same,CDK-b2 Band intensity,[2]; [9],1683
same,CDK-b2 %,[2]; [10],28.47%
same,CDK-b2 Band intensity,[2]; [10],3963
same,CDK-b2 %,[2]; [11],49.90%
same,CDK-b2 Band intensity,[2]; [11],6947
same,CDK-b2 %,[2]; [12],87.45%
same,CDK-b2 Band intensity,[2]; [12],12174
same,CDK-b2 %,[2]; [13],100%
same,CDK-b2 Band intensity,[2]; [13],13921
same,CDK-b2 %,[2]; [14],55.84%
same,CDK-b2 Band intensity,[2]; [14],7774
same,CDK-b2 %,[2]; [15],67.57%
same,CDK-b2 Band intensity,[2]; [15],9407
same,CDK-b2 %,[2]; [16],47.80%
same,CDK-b2 Band intensity,[2]; [16],6654
same,CDK-b2 %,[2]; [17],22.78%
same,CDK-b2 Band intensity,[2]; [17],3172
same,CDK-b2 %,[2]; [18],13.73%
same,CDK-b2 Band intensity,[2]; [18],1912
same,CDK-b2 %,[2]; [19],22.86%
same,CDK-b2 Band intensity,[2]; [19],3183
same,CDK-b2 %,[2]; [20],18.55%
same,CDK-b2 Band intensity,[2]; [20],2583
same,CDK-b2 %,[2]; [21],22.19%
same,CDK-b2 Band intensity,[2]; [21],3089
same,cycB1 %,[3]; [6],33.18%
same,cycB1 Band intensity,[3]; [6],636
same,cycB1 %,[3]; [7],62.69%
same,cycB1 Band intensity,[3]; [7],1201
same,cycB1 %,[3]; [8],47.09%
same,cycB1 Band intensity,[3]; [8],902
same,cycB1 %,[3]; [9],59.67%
same,cycB1 Band intensity,[3]; [9],1143
same,cycB1 %,[3]; [10],69.42%
same,cycB1 Band intensity,[3]; [10],1330
same,cycB1 %,[3]; [11],83.86%
same,cycB1 Band intensity,[3]; [11],1607
same,cycB1 %,[3]; [12],89.57%
same,cycB1 Band intensity,[3]; [12],1717
same,cycB1 %,[3]; [13],100.0%
same,cycB1 Band intensity,[3]; [13],1917
same,cycB1 %,[3]; [14],76.51%
same,cycB1 Band intensity,[3]; [14],1466
same,cycB1 %,[3]; [15],90.81%
same,cycB1 Band intensity,[3]; [15],1740
same,cycB1 %,[3]; [16],77.04%
same,cycB1 Band intensity,[3]; [16],1476
same,cycB1 %,[3]; [17],45.09%
same,cycB1 Band intensity,[3]; [17],864
same,cycB1 %,[3]; [18],48.70%
same,cycB1 Band intensity,[3]; [18],933
same,cycB1 %,[3]; [19],49.18%
same,cycB1 Band intensity,[3]; [19],942
same,cycB1 %,[3]; [20],52.79%
same,cycB1 Band intensity,[3]; [20],1012
same,CycD3 %,[4]; [6],12.10%
same,CycD3 Band intensity,[4]; [6],465
same,CycD3 %,[4]; [7],14.46%
same,CycD3 Band intensity,[4]; [7],555
same,CycD3 %,[4]; [8],43.55%
same,CycD3 Band intensity,[4]; [8],1674
same,CycD3 %,[4]; [9],76.31%
same,CycD3 Band intensity,[4]; [9],2933
same,CycD3 %,[4]; [10],72.80%
same,CycD3 Band intensity,[4]; [10],2798
same,CycD3 %,[4]; [11],77.13%
same,CycD3 Band intensity,[4]; [11],2964
same,CycD3 %,[4]; [12],85.55%
same,CycD3 Band intensity,[4]; [12],3288
same,CycD3 %,[4]; [13],100.0%
same,CycD3 Band intensity,[4]; [13],3844
same,CycD3 %,[4]; [14],79.41%
same,CycD3 Band intensity,[4]; [14],3052
same,CycD3 %,[4]; [15],79.09%
same,CycD3 Band intensity,[4]; [15],3040
same,CycD3 %,[4]; [16],94.06%
same,CycD3 Band intensity,[4]; [16],3615
same,CycD3 %,[4]; [17],59.40%
same,CycD3 Band intensity,[4]; [17],2283
same,CycD3 %,[4]; [18],26.53%
same,CycD3 Band intensity,[4]; [18],1019
same,CycD3 %,[4]; [19],51.71%
same,CycD3 Band intensity,[4]; [19],1987
same,CycD3 %,[4]; [20],64.80%
same,CycD3 Band intensity,[4]; [20],2490
same,CycD3 %,[4]; [21],70.93%
same,CycD3 Band intensity,[4]; [21],2726
same,peak mitotic index,[5],up to 40%
